We go through four molecules from ChEMBL document CHEMBL1130921, “The cholesterol metabolite cholest-4-en-3-one and its 3-oxo derivatives suppress body weight gain, body fat accumulation and serum lipid concentration in mice” (Bioorg Med Chem Lett, 1998).

The species entered for series [1] is Mus musculus. The series is described as follows: Evaluated for potency in CDF1 mice and the inhibition of body weight gain was determined. The series is classed as functional.
The species entered for series [2] is Mus musculus. The series is described as follows: Evaluated for potency in CDF1 mice and the ability of it to decrease feed consumption was determined. It counts as functional.
Series [3] is filed under the species Mus musculus. The series is described as follows: Compound was evaluated for its potency in CDF1 mice and the serum metabolite levels were determined. The series is classed as ADME, organism-based.
Series [4] is filed under the species Mus musculus. The series is described as follows: Compound was evaluated for its potency in CDF1 mice and the abdominal fat weight was determined. The series is classed as functional, Abdomen.
The species named for series [5] is Mus musculus. Briefly: Feed efficiency was calculated by dividing body weight gain by feed consumption in mouse. The series is classed as functional.
Series [6] is filed under the species Mus musculus. The series is described as follows: Compound was evaluated for its potency in CDF1 mice and the serum cholesterol levels were determined. The series is classed as ADME, organism-based.
The species named for series [7] is Mus musculus. Briefly: Compound was evaluated for its potency in CDF1 mice and the serum triglyceride levels were determined. The series is classed as ADME, organism-based.
The species entered for series [8] is Mus musculus. Briefly: Compound was evaluated for its potency in CDF1 mice and the abdominal fat weight was determined. The series is classed as functional, Abdomen.

With `CC[C@H](CC[C@@H](C)[C@H]1CC[C@H]2[C@@H]3CCC4=CC(=O)CC[C@]4(C)[C@H]3CC[C@]12C)C(C)C`, in series [1], the Body weight gain was determined as 0.4 g/day. This molecule registered a Feed consumption in series [2] of 4.94 g/day. Moreover, in series [3], the Serum metabolite came to 0 mg/dL. This molecule registered an Abdominal fat in series [4] of 1 g. In addition, in series [5], the Feed efficiency was 0.08. In series [6], this molecule had a Serum cholesterol of 164.6 mg/dL. Further, the Serum triglyceride in series [7] was 188.3 mg/dL.

In series [1], `CC(C)CCC[C@@H](C)[C@H]1CC[C@H]2[C@@H]3CCC4=CC(=O)CC[C@]4(C)[C@H]3CC[C@]12C` [4-CHOLESTEN 3-ONE] displayed a Body weight gain of 0.35 g/day. The same molecule showed a Feed consumption in series [2] of 5.43 g/day. The Serum metabolite in series [3] came to 22 mg/dL. Also, the Feed efficiency in series [5] is on record as 0.06. For the same molecule, the Serum cholesterol in series [6] turned out to be 115.8 mg/dL. In addition, the Abdominal fat in series [8] was 0.68 g. This molecule also returned a Serum triglyceride in series [7] of 218.3 mg/dL.

As for `CC(C)CCC[C@@H](C)[C@H]1CC[C@H]2[C@@H]3CC=C4CC(=O)CC[C@]4(C)[C@H]3CC[C@]12C` [CHOLEST-5-EN-3-ONE], the Body weight gain in series [1] was -0.1 g/day. Moreover, in series [2], the Feed consumption came out at 3.62 g/day. In addition, the Serum metabolite in series [3] amounted to 0 mg/dL. In series [4], the Abdominal fat was 0.48 g. The Feed efficiency in series [5] is on record as 0.03. In series [6], this molecule came in with a Serum cholesterol of 122.1 mg/dL. In series [7], this molecule registered a Serum triglyceride of 87.5 mg/dL.

For the molecule `CC(C)CCC[C@@H](C)[C@H]1CC[C@H]2[C@@H]3CC[C@H]4CC(=O)CC[C@]4(C)[C@H]3CC[C@]12C` [CHOLESTAN-3-ONE], the Body weight gain in series [1] is 0.28 g/day. For the same molecule, the Feed consumption in series [2] turned out to be 4.6 g/day. For the same molecule, the Serum metabolite in series [3] came to 23 mg/dL. This molecule registered an Abdominal fat in series [4] of 0.92 g. In addition, the Feed efficiency in series [5] is listed as 0.06. For the same molecule, the Serum cholesterol in series [6] came to 134.1 mg/dL. Also, the Serum triglyceride in series [7] came to 201.7 mg/dL.
